From patent US8084448B2, “Organic compounds” (Novartis AG, priority 2006, dated 2011)
Structures can show the parent of a compound that is named as a salt.

Row | SMILES | melting point
1 | COC(=O)c1c(O)cccc1OCCCCNC(=O)CCc1ccc(N2CC(=O)NS2(=O)=O)c(O)c1 [Example 110, 2-Hydroxy-6-(4-{3-[3-hydroxy-4-(1,1,4-trioxo-1,2,5-thiadiazolidin-2-yl)-phenyl]-propionylamino}-butoxy)-benzoic Acid Methyl Ester] | 85 to 90 °C
2 | O=C1CN(c2ccc(-c3ccoc3)cc2O)S(=O)(=O)N1 (as salt: potassium) [Example 272, 5-(4-Furan-3-yl-2-hydroxyphenyl)-1,1-dioxo-1,2,5-thiadiazolidin-3-one] | 230 to 235 °C
3 | O=C1CN(c2ccc(S(=O)(=O)c3ccccc3)cc2O)S(=O)(=O)N1 [Example 318, 5-(4-Benzenesulfonyl-2-hydroxyphenyl)-1,1-dioxo-1,2,5-thiadiazolidin-3-one] | 126 to 180 °C

The remaining lines, values ahead:

Row | melting point | SMILES
4 | 185 to 188 °C | O=C(O)COc1ccc(N2CC(=O)NS2(=O)=O)c(O)c1 [Example 296, [3-Hydroxy-4-(1,1,4-trioxo-1,2,5-thiadiazolidin-2-yl)-phenoxy]-acetic Acid]
5 | 65 to 70 °C | O=C1CN(c2ccc(OCCc3ccccc3)cc2O)S(=O)(=O)N1 [Example 55, 5-(2-Hydroxy-4-phenethyloxyphenyl)-1,1-dioxo-1,2,5-thiadiazolidin-3-one]
